24 molecules from patent US7687640B2, “Cinnamide compound” (Eisai R&D Management Co., Ltd., priority 2004, dated 2010) can be followed below.

The subject of this assay is Aβ42 production. The assay can be described thus: Quantification of Aβ peptide (Aβx-42 ELISA) in neuronal culture from rat fetus brain. As to conditions: primary neuronal culture from cerebral cortices of embryonic day 18 Wistar rat; compound added on day 4 of culture, incubation for 3 days; Aβx-42 in medium by ELISA, % of CTRL; read-out: Effect to Reduce Aβ42 Production IC50. The format is cell-based. As to the method:
Quantification of Aβ Peptide in Neuronal Culture from Rat Fetus Brain (1)
Primary neuronal cultures were prepared from cerebral cortices from embryonic day 18 Wistar rat (Charles River Japan, Yokohama, Japan). The embryos were aseptically removed from a pregnant rat under ether anesthesia. The brain was isolated from the embryo, and immersed in ice-cold L-15 medium (for example, Invitrogen Corp. Cat #11415-064, Carlsbad, Calif., USA, or SIGMA L1518, St. Louis. MO, USA). The cerebral cortex was collected under a stereoscopic microscope from the brain. The cerebral cortex fragments collected were subjected to enzyme treatment in an enzyme solution containing 0.25% trypsin (for example, Invitrogen Corp., Cat #15050-065, Carlsbad, Calif., USA) and 0.01% DNase (for example, Sigma D5025, St. Louis. MO, USA) at 37 C for 30 minutes to allow for cell dispersion. The enzyme reaction was terminated by addition of same volume of heat-inactivated horse serum. After centrifugation at 1500 rpm for 5 minutes, the supernatant was removed and 5-10 ml of medium was added to the cell pellet. Neurobasal Medium™ (Invitrogen Corp., Carlsbad, Calif., USA) supplemented with 2% B-27 supplement (Invitrogen Corp., Carlsbad, Calif., USA), 25 μM 2-mercaptoethanol (2-ME, WAKO, 139-06861, Osaka, Japan), 0.5 mM L-glutamine (for example, Invitrogen Corp., Cat # 25030-081, Carlsbad, Calif., USA), and 1% antibiotics-antimycotics (Invitrogen Corp., Cat # 15240-062, Carlsbad, Calif., USA) was used as the culture medium (Neurobasal/B27/2-ME). At the compound evaluation, the medium of the same composition not to add 2-ME alone (Neurobasal/B27) was used. The cell pellet was triturated by mild pipetting. Remaining cell pellet was removed by filtering through a 40-μm nylon mesh (Cell Strainer, Cat # 35-2340, Becton Dickinson Labware, Franklin Lakes, N.J., USA) and a neuronal cell suspension was obtained. The neuronal cell suspension was diluted with the Neurobasal/B27/2-ME medium and then plated in a volume of 100 μl/well to obtain an initial cell density of 5×10^5 cells/cm^2 in a 96-well polystyrene plate pre-coated with poly-L or D-lysine (for example, Falcon MICROTEST Tissue culture plate 96 well flat bottom with low evaporation lid (Cat # 35-3075, Becton Dickinson Labware, Franklin Lakes, N.J., USA) coated with poly-L-lysine using the method shown below, or BIOCOAT™ cell environments Poly-D-lysine cell ware 96-well plate, Cat # 35-6461, Becton Dickinson Labware, Franklin Lakes, N.J., USA). Poly-L-lysine coating was carried out as follows. Poly-L-lysine (SIGMA P2636, St. Louis, Mo., USA) solution at 100 μg/ml was prepared aseptically with 0.15 M Borate buffer (pH 8.5). The solution was added to a 96-well polystyrene […] at 50-100 μl/well and incubated at room temperature for one hour or more, or at 4 C overnight or longer. This was rinsed 4 or more times with sterile water, and then dried or rinsed with, for example, sterile PBS or medium, and used for plating cells. Cells were cultured for one day in an incubator of 5% CO2-95% air at 37 C, the entire amount of the medium was exchanged with fresh Neurobasal/B27/2-ME, and the cells were then cultured for further 3 days.
Drugs were added on day 4 of culture as follows. The entire amount of the medium was removed from culture well, and Neurobasal/B27 medium was added at 180 μl/well. The test compound dimethyl sulfoxide (hereinafter abbreviated as DMSO) solution was diluted with Neurobasal/B27 so than it would be 10-fold of the desired final concentration. A diluent was added at 20 μl/well and mixed well. The final concentration of DMSO was 1% or less. Only DMSO was added to the control group.
After incubation for 3 days, the entire amount of the medium was collected as ELISA sample. This was used without any dilution for Aβx-42 measurement, and diluted to 5-fold with the diluent supplied with ELISA kit for Aβx-40 measurement, before subjecting to respective ELISA assays. […]

pIC50: −log10 of the molar value. Structures can show the parent of a compound that is named as a salt.

A word on the pIC50: it is the IC50 on a negative log10 scale, so that one unit is a factor of ten. On to `COc1cc(/C=C/C(=O)N[C@H]2CCOc3ccccc32)ccc1-n1cnc(C)c1` (mixture of isomers) [Example 414, (E)-N-[(4R) and (4S)-chroman-4-yl]-3-[3-methoxy-4-(4-methyl-1H-imidazol-1-yl)phenyl]acrylamide], for which the negative logarithm of the IC50 (pIC50) is 6.89.
For the molecule `COc1cc(/C=C2\CCCN([C@H]3CCOc4ccccc43)C2=O)ccc1-n1cnc(C)c1` (mixture of isomers) [Example 420, (E)-1-[(4R) and (4S)-chroman-4-yl]-3-[3-methoxy-4-(4-methyl-1H-imidazol-1-yl)benzylidene]piperidin-2-one], the pIC50 was 6.92.
For `COc1cc(/C=C2\CCCN([C@H](C)c3ccc(F)cc3F)C2=O)ccc1-n1cnc(C)c1` (mixture of isomers) [Example 621, (E)-1-[(1R) and (1S)-1-(2,4-difluorophenyl)ethyl]-3-[3-methoxy-4-(4-methyl-1H-imidazol-1-yl)benzylidene]piperidin-2-one], the negative-log IC50 (pIC50) is 7.00.
With `COc1cc(C=C(F)C(=O)N[C@@H]2c3ccccc3C[C@@H]2O)ccc1-n1cnc(C)c1` (stereo in doubt) [Example 90, (E)-2-fluoro-N-[(1R,2S)-2-hydroxy-indan-1-yl]-3-[3-methoxy-4-(4-methyl-1H-imidazol-1-yl)phenyl]acrylamide], the negative-log IC50 (pIC50) was 6.62.
As for `COc1cc(/C=C(\F)C(=O)NC2c3ccccc3-c3ccccc32)ccc1-n1cnc(C)c1` [Example 86, N-(9H-fluoren-9-yl)-2-fluoro-3-[3-methoxy-4-(4-methyl-1H-imidazol-1-yl)phenyl]acrylamide], the figure is 6.49; as for `COc1cc(/C=C(\Cc2ccccc2)C(=O)N[C@@H]2c3ccccc3C[C@@H]2O)ccc1-n1cnc(C)c1` [Example 96, (E)-2-benzyl-N-[(1R,2S)-2-hydroxy-indan-1-yl]-3-[3-methoxy-4-(4-methyl-1H-imidazol-1-yl)phenyl]acrylamide trifluoroacetic acid salt], 6.66.
Then `COc1cc(/C=C/C(=O)NCc2cccc(-c3ccccc3)c2)ccc1-n1cnc(C)c1` [Example 121, (E)-N-biphenyl-3-ylmethyl-3-(3-methoxy-4-(4-methyl-1H-imidazol-1-yl)phenyl)acrylic acid amide], with 7.15; and `COc1cc(/C=C/C(=O)N[C@H]2CCc3ccccc32)ccc1-n1cnc(C)c1` [Example 122, (E)-N-[(1S)-indan-1-yl]-3-[3-methoxy-4-(4-methyl-1H-imidazol-1-yl)phenyl]acrylamide trifluoroacetic acid salt], with 6.72; and `COc1cc(/C=C/C(=O)N[C@@H](CF)Cc2ccccc2)ccc1-n1cnc(C)c1` [Example 139, (E)-N-[(1R)-fluoromethyl-2-phenylethyl]-3-[3-methoxy-4-(4-methyl-1H-imidazol-1-yl)phenyl]acrylic acid amide], with 6.70.
Then `COc1cc(/C=C/C(=O)N2CCC(c3cc4ccccc4[nH]3)CC2)ccc1-n1cnc(C)c1` [Example 338, (E)-1-{4-(1H-indol-2-yl)piperidin-1-yl}-3-[3-methoxy-4-(4-methyl-1H-imidazol-1-yl)phenyl]propenone], with 6.48; and `COc1cc(/C=C/C(=O)N2CCCC(c3ccc(F)cc3)CC2)ccc1-n1cnc(C)c1` (stereo not drawn) [Example 353, (E)-1-[4-(4-fluorophenyl)azepan-1-yl]-3-[3-methoxy-4-(4-methyl-1H-imidazol-1-yl)phenyl]propenone], with 6.66.
`COc1cc(/C=C/C(=O)N2CCC(c3cc4ccccc4n3CCO)CC2)ccc1-n1cnc(C)c1` [Example 366, (E)-1-{4-[1-(2-hydroxyethyl)-1H-indol-2-yl]piperidin-1-yl}-3-[3-methoxy-4-(4-methyl-1H-imidazol-1-yl)phenyl]propenone]: the pIC50 is 6.48.
Then `COc1cc(/C=C2\CCCN(Cc3cccc(F)c3)C2=O)ccc1-n1cnc(C)c1` [Example 398, (E)-1-(3-fluorobenzyl)-3-[3-methoxy-4-(4-methyl-1H-imidazol-1-yl)benzylidene]piperidin-2-one], with 6.66; and `COc1cc(/C=C2\CCCN(Cc3cccc(I)c3)C2=O)ccc1-n1cnc(C)c1` [Example 402, (E)-1-(3-iodobenzyl)-3-[3-methoxy-4-(4-methyl-1H-imidazol-1-yl)benzylidene]piperidin-2-one monotrifluoroacetic acid salt], with 7.15; and `COc1cc(/C=C2\CCCN(Cc3cc(Cl)nc(Cl)c3)C2=O)ccc1-n1cnc(C)c1` [Example 403, (E)-1-(2,6-dichloropyridine-4-ylmethyl)-3-[3-methoxy-4-(4-methyl-1H-imidazol-1-yl)benzylidene]piperidin-2-one], with 7.05.
For `COc1cc(/C=C2\CCCN(Cc3ccc(F)c(F)c3)C2=O)ccc1-n1cnc(C)c1` [Example 416, (E)-1-(3,4-difluorobenzyl)-3-[3-methoxy-4-(4-methyl-1H-imidazol-1-yl)benzylidene]piperidin-2-one], the pIC50 is 7.00.
As for `COc1cc(/C=C2\CCCN(C3Cc4ccccc4C3)C2=O)ccc1-n1cnc(C)c1` [Example 418, (E)-1-indan-2-yl-3-[3-methoxy-4-(4-methyl-1H-imidazol-1-yl)benzylidene]piperidin-2-one], the figure is 6.96; as for `COc1cc(/C=C2\CCCN([C@@H](C)c3ccc(F)cc3)C2=O)ccc1-n1cnc(C)c1` [Example 425, (E)-1-[(1S)-1-(4-fluorophenyl)ethyl]-3-[3-methoxy-4-(4-methyl-1H-imidazol-1-yl)benzylidene]piperidin-2-one], 7.10.
Then `COc1cc(/C=C2\CCCN(Cc3cccc(Cl)n3)C2=O)ccc1-n1cnc(C)c1` [Example 427, (E)-1-[(6-chloropyridin-2-yl)methyl]-3-[3-methoxy-4-(4-methyl-1H-imidazol-1-yl)benzylidene]piperidin-2-one], with 6.11.
As to `COc1cc(/C=C2\CCCN(Cc3ccc(C(C)(C)C)cc3)C2=O)ccc1-n1cnc(C)c1` [Example 430, (E)-1-(4-tert-butylbenzyl)-3-[3-methoxy-4-(4-methyl-1H-imidazol-1-yl)benzylidene]piperidin-2-one], the pIC50 is 6.92.
Then `COc1cc(/C=C2\CCCN(Cc3ccc(F)c(F)c3)C2=O)cnc1-n1cnc(C)c1` [Example 611, (E)-1-(3,4-difluorobenzyl)-3-{[5-methoxy-6-(4-methyl-1H-imidazol-1-yl)pyridin-3-yl]methylene}piperidin-2-one], with 6.58; and `COc1cc(/C=C2\CCCN(C3(c4ccc(F)cc4)CCOCC3)C2=O)ccc1-n1cnc(C)c1` [Example 639, (E)-1-[4-(4-fluorophenyl)tetrahydropyran-4-yl)-3-(3-methoxy-4-(4-methyl-1H-imidazol-1-yl)benzylidene]piperidin-2-one], with 7.25; and `COc1cc(/C=C2\CCCN(C(C)c3c[nH]c4ccccc34)C2=O)ccc1-n1cnc(C)c1` [Example 965, (E)-1-[(1R) and (1S)-(1H-indol-3-yl)ethyl]-3-[3-methoxy-4-(4-methyl-1H-imidazol-1-yl)benzylidene]piperidin-2-one], with 7.06.
As for `COc1cc(/C=C2\CCCN(C(c3ccc(F)cc3)C(C)C)C2=O)ccc1-n1cnc(C)c1` [Example 976, (E)-1-[(1S) and (1R)-1-(4-fluorophenyl)-2-methylpropyl]-3-[3-methoxy-4-(4-methyl-1H-imidazol-1-yl)benzylidene]piperidin-2-one], the figure is 7.10.
